Data taken from patent US6900331B2, “Derivatives of epothilone B and D and synthesis thereof” (University of Notre Dame, priority 2002, dated 2005).

Legend:
[1] = system: Human breast carcinoma cell line MCF-7; test: Cytotoxicity assay (SRB), MCF-7; assay type: cell-based; conditions: 3 days exposure, SRB staining
Protocol: (§1) Cell lines and culture conditions: Human breast carcinoma cell line MCF-7, multi-drug resistant breast carcinoma cell line NCI/ADR, non-small cell lung carcinoma cell line NCI-H460 and glioma cell line SF-268 were obtained from the National Cancer Institute. All cell lines were maintained in RPMI-1640 medium (Gibco/BRL, Rockville, Md.) supplemented with 2 mM L-glutamine, 25 mM HEPES and 10% FBS (Hyclone, Logan, Utah). Cells were maintained in a humidified incubator at 37° C. in 5% CO2.
(§2) Cytoloxicity assays: Tumor cells were seeded in 100 μl at 5000 (MCF-7), 7500 (NCI/ADR), 5000 (NCI-H460) and 7500 (SF-268) cells per well in 96-well plates. Cells were allowed to adhere for 24 hours. Each compound ranging from 0.001 to 1000 nM in 100 μl was added to cells in triplicate wells. After 3 days, cells were fixed at 4° C. for 1 hour with 10% trichloroacetic acid and then stained with 0.2% sulforhodamine B (SRB)/1% acetic acid for 20 minutes at room temperature. The unbounded dye was rinsed away with 1% acetic acid, and the bounded SRB was then extracted with 200 μl of 10 mM Tris base. The absorbance was measured at 515 nm using a 96-well microtiter plate reader (Spectra Max 250, Molecular Devices). The IC50 values were calculated using a KaleidaGraph program. The experiments were performed twice.

[2] = system: multi-drug resistant breast carcinoma cell line NCI/ADR; test: Cytotoxicity assay (SRB), NCI/ADR; assay type: cell-based, Human; conditions: 3 days exposure, SRB staining
Protocol: as §1, §2

glioma cell line SF-268 = test: Cytotoxicity assay (SRB), SF-268; assay type: cell-based, Human; conditions: 3 days exposure, SRB staining
Protocol: as §1, §2

[3] = system: non-small cell lung carcinoma cell line NCI-H460; test: Cytotoxicity assay (SRB), NCI-H460; assay type: cell-based, Human; conditions: 3 days exposure, SRB staining
Protocol: as §1, §2

tubulin = test: Preliminary tubulin polymerization activity; assay type: biochemical; conditions: preliminary biological investigations
tumor cell = test: Tumor cell growth assays; assay type: cell-based; conditions: fold as active as epothilone B

Row | Compound | IC50 [1] [nM] | IC50 [2] [nM] | IC50 (glioma cell line SF-268) [nM] | IC50 [3] [nM] | tubulin polymerization activity (tubulin) | IC50 ([1]; Homo sapiens, MCF7, 72 h) [nM] | IC50 ([2]; Homo sapiens, NCI/ADR-RES, 72 h) [nM] | IC50 (glioma cell line SF-268; Homo sapiens, SF-268, 72 h) [nM] | IC50 ([3]; Homo sapiens, NCI-H460, 72 h) [nM] | activity relative to epothilone B itself (tumor cell) [×]
1 | C/C(=C\c1csc(C)n1)[C@H]1OC(=O)C[C@H](O)C(C)(C)C(=O)[C@H](C)[C@@H](O)[C@@H](C)CCC[C@@]2(C)O[C@H]2[C@H]1C [Compound 4, (S)-C14-methyl epothilone B] | > 1000 | > 1000 | > 1000 | > 1000 |  |  |  |  |  | 
2 | C/C1=C/[C@@H](C)[C@@H](/C(C)=C/c2csc(C)n2)OC(=O)C[C@H](O)C(C)(C)C(=O)[C@H](C)[C@@H](O)[C@@H](C)CCC1 [Compound 13, (R)-C14-methyl epothilone D] | > 1000 | > 1000 | > 1000 | > 1000 | relatively weak activity |  |  |  |  | 
3 | C/C1=C/C[C@@H](/C(C)=C/c2csc(C)n2)OC(=O)C[C@H](O)C(C)(C)C(=O)[C@H](C)[C@@H](O)[C@@H](C)CCC1 [Epothilone D, reference compound] | 5 | 26 | 7 | 20 |  |  |  |  |  | 
4 | C/C1=C/[C@H](C)[C@@H](/C(C)=C/c2csc(C)n2)OC(=O)C[C@H](O)C(C)(C)C(=O)[C@H](C)[C@@H](O)[C@@H](C)CCC1 [Compound 12, (S)-C14-methyl epothilone D] |  |  |  |  | significant | 35 | 238 | 42 | 42 | 
5 | C/C(=C\c1csc(C)n1)[C@H]1OC(=O)C[C@H](O)C(C)(C)C(=O)[C@H](C)[C@@H](O)[C@@H](C)CCC[C@@]2(C)O[C@H]2[C@@H]1C [Compound 3, (R)-C14-methyl epothilone B] | 3 | 23 | 3 | 3 | significant |  |  |  |  | > 2
